Source: ChEMBL document CHEMBL4038351, “Structure-Guided Development of Covalent and Mutant-Selective Pyrazolopyrimidines to Target T790M Drug Resistance in Epidermal Growth Factor Receptor” (J Med Chem, 2017)
In brackets after ≈: the same amount, converted by molar mass. Activity calls are given as the source filed them. The calls are words filed in the database; no cut-off is given here.

Key:
[1] = target: Epidermal growth factor receptor (Homo sapiens, UniProt P00533, L858R)
in vitro [2] = settings: human, Caco-2
Description: Efflux ratio of apparent permeability from basolateral side to apical side over apical side to basolateral side over in human Caco2 cells at 5 uM incubated for 2 hrs

in vitro [3] = settings: mouse, liver microsomes
[4] = Kinetic solubility in Hepes buffer at 500 uM at pH 7.4 after 90 mins; format: physicochemical; settings: read-out: Kinetic_solubility
[5] = tested on: Epidermal growth factor receptor (Homo sapiens), P00533 [L858R,T790M]; experiment: Covalent binding affinity to human recombinant GST-tagged EGFR L858R/T790M double mutant expressed in baculovirus expression system by mass spectrometry
[6] = Apparent permeability across basolateral to apical side in human Caco2 cells at 5 uM incubated for 2 hrs; format: ADME, cell-based, Caco-2; settings: Caco-2
in vitro [7] = settings: human, liver microsomes
A-431 = experiment: cells; format: ADME, cell-based; settings: Homo sapiens;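 further: antiproliferative effect on cells bearing wild-type EGFR, 96 h exposure, viability read by CellTiter-Glo luminescence on day 5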
Description: Antiproliferative activity against human A431 cells expressing wild type EGFR incubated for 96 hrs measured on day 5 by CellTiterGlo assay

[8] = target: Epidermal growth factor receptor (Homo sapiens, UniProt P00533)
[9] = target: Epidermal growth factor receptor (Homo sapiens, UniProt P00533, L858R/T790M)
[10] = Permeability of the compound at 500 uM incubated for 20 hrs by PAMPA; format: physicochemical
HCC827 = experiment: cells; format: functional, cell-based; settings: Homo sapiens;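 further: antiproliferative effect on HCC827 cells carrying EGFR delE746_A750 mutation, 96 h exposure, viability read by CellTiter-Glo luminescence on day 5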
Description: Antiproliferative activity against human HCC827 cells harboring EGFR-delE746_A750 mutant incubated for 96 hrs measured on day 5 by CellTiterGlo assay

[11] = Apparent permeability across apical to basolateral side in human Caco2 cells at 5 uM incubated for 2 hrs; format: ADME, cell-based, Caco-2; settings: Caco-2
[12] = Fraction unbound in mouse 100% plasma at 5 uM incubated for 6 hrs by LC-MS method; format: ADME, cell-free
NCI-H1975 = experiment: cells; format: functional, cell-based; settings: Homo sapiens
A549 = experiment: cells; format: ADME, cell-based; settings: Homo sapiens;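 further: antiproliferative effect in KRAS G12S mutant A549 cells after 96 h exposure, viability read by CellTiter-Glo luminescence on day 5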
Description: Antiproliferative activity against human A549 cells harboring KRAS-G12S mutant incubated for 96 hrs measured on day 5 by CellTiterGlo assay

[13] = Metabolic stability in human plasma at 5 uM incubated for 1 hr by LC-MS method; format: ADME, cell-free; settings: read-out: Stability
[14] = Metabolic stability in mouse plasma at 5 uM incubated for 1 hr by LC-MS method; format: ADME, cell-free; settings: read-out: Stability
[15] = Volume of distribution at steady state in RjOrl:SWISS (CD1) mouse plasma at 2 mg/kg, iv; format: ADME, organism-based; settings: read-out: Vdss
[16] = Oral bioavailability in RjOrl:SWISS (CD1) mouse plasma at 20 mg/kg administered via gavage; format: ADME, organism-based
[17] = Ratio of free Cmax in RjOrl:SWISS (CD1) mouse plasma at 20 mg/kg, ip to EC50 for antiproliferative activity against human NCI-H1975 cells harboring EGFR-L858R/T790M double mutant
Mus musculus [18] = experiment: Toxicity in RjOrl:SWISS (CD1) mouse at 20 mg/kg, po administered via gavage; format: organism-based; settings: in vivo
[19] = Half life in RjOrl:SWISS (CD1) mouse plasma at 20 mg/kg, po administered via gavage; format: ADME, organism-based
[20] = AUC in RjOrl:SWISS (CD1) mouse plasma at 2 mg/kg, iv; format: ADME, organism-based
[21] = Cmax in RjOrl:SWISS (CD1) mouse plasma at 20 mg/kg, po administered via gavage; format: ADME, organism-based; design: dose 20 mg/kg, route oral
[22] = AUC in RjOrl:SWISS (CD1) mouse plasma at 20 mg/kg, po administered via gavage; format: ADME, organism-based
Mus musculus [23] = experiment: Time duration during which free plasma concentration stays above in vitro EC50 for human NCI-H1975 cells harboring EGFR-L858R/T790M double mutant in RjOrl:SWISS (CD1) mouse at 20 mg/kg, ip
[24] = Ratio of total Cmax in RjOrl:SWISS (CD1) mouse plasma at 20 mg/kg, ip to EC50 for antiproliferative activity against human NCI-H1975 cells harboring EGFR-L858R/T790M double mutant
[25] = Half life in RjOrl:SWISS (CD1) mouse plasma at 2 mg/kg, iv; format: ADME, organism-based
[26] = Clearance in RjOrl:SWISS (CD1) mouse plasma at 2 mg/kg, iv; format: ADME, organism-based
Mus musculus [27] = experiment: Free Cmax in RjOrl:SWISS (CD1) mouse plasma at 20 mg/kg, ip; format: ADME, organism-based; settings: in vivo
Mus musculus [28] = experiment: Toxicity in RjOrl:SWISS (CD1) mouse at 2 mg/kg, iv; format: organism-based; settings: in vivo
Mus musculus [29] = experiment: Toxicity in RjOrl:SWISS (CD1) mouse at 20 mg/kg, ip; format: organism-based; settings: in vivo
[30] = Initial concentration in RjOrl:SWISS (CD1) mouse plasma at 2 mg/kg, iv; format: ADME, organism-based
[31] = AUC in RjOrl:SWISS (CD1) mouse plasma at 20 mg/kg, ip; format: ADME, organism-based
Mus musculus [32] = experiment: Time duration during which total plasma concentration stays above in vitro EC50 for human NCI-H1975 cells harboring EGFR-L858R/T790M double mutant in RjOrl:SWISS (CD1) mouse at 20 mg/kg, ip
[33] = Half life in RjOrl:SWISS (CD1) mouse plasma at 20 mg/kg, ip; format: ADME, organism-based
Mus musculus [34] = experiment: Bioavailability in RjOrl:SWISS (CD1) mouse plasma at 20 mg/kg, ip; format: ADME, organism-based; settings: in vivo
[35] = Total Cmax in RjOrl:SWISS (CD1) mouse plasma at 20 mg/kg, ip; format: ADME, organism-based; design: dose 20 mg/kg, route intraperitoneal

C=CC(=O)N1CCC[C@@H](n2nc(-c3ccc4ccccc4c3)c3c(N)ncnc32)C1
IC50 [1]: 1 nM | efflux ratio at 2 h, 5 µM (in vitro [2]): 0.3 | microsomal CLint at 50 min, 3 µM (in vitro [3]): 2310 µL/min/mg | solubility kinetic at 1.5 h, 500 µM [4]: 248 µM (≈ 98.8 µg/mL) | Activity [5]: Active | Papp B→A at 2 h, 5 µM [6]: 0.13 ×10⁻⁶ cm/s | microsomal CLint at 50 min, 3 µM (in vitro [7]): 770 µL/min/mg | EC50 (A-431): 3600 nM | IC50 [8]: 20 nM | IC50 [9]: < 1 nM | permeability [10]: 73% | EC50 (HCC827): < 14 nM | Papp A→B at 2 h, 5 µM [11]: 0.51 ×10⁻⁶ cm/s | fraction unbound at 6 h, 5 µM [12]: 0.02 | EC50 (NCI-H1975): 140 nM | EC50 (A549): 11600 nM | remaining at 1 h, 5 µM [13]: 94% | remaining at 1 h, 5 µM [14]: 86%

C=CC(=O)N1CCC[C@@H](n2nc(-c3cn(C)c4ccccc34)c3c(N)ncnc32)C1
IC50 [1]: 2 nM | Vd [15]: 12.4 L/kg | bioavailability [16]: 2.4% | Ratio [17]: 6 | efflux ratio at 2 h, 5 µM (in vitro [2]): 1 | Activity (Mus musculus [18]): Non-Toxic | half-life [19]: 35.4 min | AUC [20]: 121 ng·h/mL | microsomal CLint at 50 min, 3 µM (in vitro [3]): 1980 µL/min/mg | solubility kinetic at 1.5 h, 500 µM [4]: 364 µM (≈ 146 µg/mL) | Cmax [21]: 38 ng/mL | AUC [22]: 29 ng·h/mL | Activity [5]: Active | Papp B→A at 2 h, 5 µM [6]: 0.29 ×10⁻⁶ cm/s | Time (Mus musculus [23]): 30 min | microsomal CLint at 50 min, 3 µM (in vitro [7]): 462 µL/min/mg | Ratio [24]: 50 | EC50 (A-431): 6780 nM | IC50 [8]: 40 nM | IC50 [9]: 3 nM | half-life [25]: 36 min | permeability [10]: 66% | clearance [26]: 277 mL/min/kg | fCmax (Mus musculus [27]): 1.36 µM | EC50 (HCC827): 90 nM | Activity (Mus musculus [28]): Non-Toxic | Papp A→B at 2 h, 5 µM [11]: 0.3 ×10⁻⁶ cm/s | Activity (Mus musculus [29]): Non-Toxic | C0 [30]: 138 ng/mL | AUC [31]: 1890 ng·h/mL | fraction unbound at 6 h, 5 µM [12]: 0.12 | Time (Mus musculus [32]): 75 min | EC50 (NCI-H1975): 230 nM | half-life [33]: 14.4 min | F (Mus musculus [34]): 156% | EC50 (A549): 23300 nM | remaining at 1 h, 5 µM [13]: 95% | remaining at 1 h, 5 µM [14]: 100% | Cmax [35]: 4540 ng/mL
